Where two headings read alike, the source gives them in different places. Starred links: 1 amine or outer side, 2 acyl side, 3 side chain; linkers in the order of their positions; H or OH if unused. Positions of bridges follow the written chain, without caps; N, C: chain ends. Non-standard residues stand in square brackets, D forms with d. Residues, ends and D or L forms follow the SMILES beside them. Groups on a side chain read outwards from the residue. *: point of attachment. Trp(1-CH2COOH) = N[C@@H](Cc1cn(CC(=O)O)c2ccccc12)C(=O)O; X63 = COc1cc([N+](=O)[O-])ccc1NC(=S)*; Hyp = O=C(O)[C@@H]1C[C@@H](O)CN1; X10 = S=C(Nc1ccc(N2CCOCC2)cc1)*; X19 = CCOC(=O)c1ccc(NC(=S)*)cc1; X94 = S=C(Nc1ccc(N2CCOCC2)nc1)*; X11 = S=C(Nc1ccccc1-c1ccccc1)*; X30 = FC(F)(F)c1ccc(N*)c(Cl)c1; X36 = c1ccc(Oc2cccc(N*)c2)cc1; NMeNle = CCCC[C@H](NC)C(=O)O; X20 = O=C(Oc1ccc2ccccc2c1)*; NMeA = CN[C@@H](C)C(=O)O; Dab = NCC[C@H](N)C(=O)O; X39 = CCCCOc1ccc(N*)cc1; Dap = NC[C@H](N)C(=O)O; X46 = COc1ccc(Cl)cc1N*; CO = O=C([*:1])[*:2]
Target: T1, PD-1/PD-L1 (Homo sapiens, UniProt Q9NZQ7)
T1 construct: TVMV protease site linker (C); made in house; host or cells: HEK293T cells
T1 sequence (Q9NZQ7 18-239): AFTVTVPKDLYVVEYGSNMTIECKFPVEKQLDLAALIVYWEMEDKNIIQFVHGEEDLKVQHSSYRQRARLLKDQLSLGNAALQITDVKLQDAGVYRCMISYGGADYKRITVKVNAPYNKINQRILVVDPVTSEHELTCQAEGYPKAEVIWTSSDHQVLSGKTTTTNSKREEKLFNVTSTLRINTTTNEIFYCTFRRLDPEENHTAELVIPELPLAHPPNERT
Experiment: PD-1/PD-L1 Homogenous Time-Resolved Fluorescence (HTRF) binding assay
Procedure, shortened: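 Compounds preincubated 15 min with PD-L1-His (10 nM final), then PD-1-Ig (20 nM final) added for 15 min in dPBS with 0.1% BSA, 0.05% Tween-20. Detection by Eu-cryptate anti-Ig (1 nM) and APC anti-His (20 nM) HTRF.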

[1] = PD-L1-His 10 nM pre-incubated with inhibitor, PD-1-Ig 20 nM, read-out: HTRF IC50

IC50 [1] [nM]	SMILES	IC50 [nM]
3.4	CCCCOc1ccc(NC(=O)NCC[C@@H]2NC(=O)[C@H](Cc3c[nH]c4ccccc34)NC(=O)[C@@H]3C[C@@H](O)CN3C(=O)[C@H](CC(C)C)NC(=O)[C@H](CN)NC(=O)[C@@H]3CCCN3C(=O)[C@H](CC(N)=O)NC(=O)[C@H](C)N(C)C(=O)[C@H](Cc3ccc(O)cc3)NC(=O)CSC[C@@H](C(=O)NCC(N)=O)NC(=O)[C@H](CC(C)C)NC(=O)[C@H](CCCC)N(C)C(=O)[C@H](CCCC)N(C)C(=O)[C@H](Cc3cn(CC(=O)O)c4ccccc34)NC2=O)cc1 [Example 1119] ({CH2CO}-Y[NMeA]NP[Dap]L[Hyp]W[Dab]([CO-X39])[Trp(1-CH2COOH)][NMeNle][NMeNle]LCG-NH2; thioether N-14)	–
6.3	CCCC[C@H]1C(=O)N(C)[C@@H](CCCC)C(=O)N[C@@H](CC(C)C)C(=O)N[C@H](C(=O)NCC(N)=O)CSCC(=O)N[C@@H](Cc2ccc(O)cc2)C(=O)N(C)[C@@H](C)C(=O)N[C@@H](CC(N)=O)C(=O)N2CCC[C@H]2C(=O)N[C@@H](CNC(=O)Nc2cc(Cl)ccc2OC)C(=O)N[C@@H](CC(C)C)C(=O)N2C[C@H](O)C[C@H]2C(=O)N[C@@H](Cc2c[nH]c3ccccc23)C(=O)N[C@@H](CCN)C(=O)N[C@@H](Cc2cn(CC(=O)O)c3ccccc23)C(=O)N1C [Example 1074] ({CH2CO}-Y[NMeA]NP[Dap]([CO-X46])L[Hyp]W[Dab][Trp(1-CH2COOH)][NMeNle][NMeNle]LCG-NH2; thioether N-14)	–
10	CCCC[C@H]1C(=O)N(C)[C@@H](CCCC)C(=O)N[C@@H](CC(C)C)C(=O)N[C@H](C(=O)NCC(N)=O)CSCC(=O)N[C@@H](Cc2ccc(O)cc2)C(=O)N(C)[C@@H](C)C(=O)N[C@@H](CC(N)=O)C(=O)N2CCC[C@H]2C(=O)N[C@@H](CN)C(=O)N[C@@H](CC(C)C)C(=O)N2C[C@H](O)C[C@H]2C(=O)N[C@@H](Cc2c[nH]c3ccccc23)C(=O)N[C@@H](CCNC(=O)Nc2ccc(C(F)(F)F)cc2Cl)C(=O)N[C@@H](Cc2cn(CC(=O)O)c3ccccc23)C(=O)N1C [Example 1115] ({CH2CO}-Y[NMeA]NP[Dap]L[Hyp]W[Dab]([CO-X30])[Trp(1-CH2COOH)][NMeNle][NMeNle]LCG-NH2; thioether N-14)	–
0.6	CCCC[C@H]1C(=O)N(C)[C@@H](CCCC)C(=O)N[C@@H](CC(C)C)C(=O)N[C@H](C(=O)NCC(N)=O)CSCC(=O)N[C@@H](Cc2ccc(O)cc2)C(=O)N(C)[C@@H](C)C(=O)N[C@@H](CC(N)=O)C(=O)N2CCC[C@H]2C(=O)N[C@@H](CNC(=S)Nc2ccc(C(=O)OCC)cc2)C(=O)N[C@@H](CC(C)C)C(=O)N2C[C@H](O)C[C@H]2C(=O)N[C@@H](Cc2c[nH]c3ccccc23)C(=O)N[C@@H](CCNC(=S)Nc2ccc(C(=O)OCC)cc2)C(=O)N[C@@H](Cc2cn(CC(=O)O)c3ccccc23)C(=O)N1C [Example 1043] ({CH2CO}-Y[NMeA]NP[Dap](X19)L[Hyp]W[Dab](X19)[Trp(1-CH2COOH)][NMeNle][NMeNle]LCG-NH2; thioether N-14)	–
4	CCCC[C@H]1C(=O)N(C)[C@@H](CCCC)C(=O)N[C@@H](CC(C)C)C(=O)N[C@H](C(=O)NCC(N)=O)CSCC(=O)N[C@@H](Cc2ccc(O)cc2)C(=O)N(C)[C@@H](C)C(=O)N[C@@H](CC(N)=O)C(=O)N2CCC[C@H]2C(=O)N[C@@H](CNC(=S)Nc2ccc(N3CCOCC3)nc2)C(=O)N[C@@H](CC(C)C)C(=O)N2C[C@H](O)C[C@H]2C(=O)N[C@@H](Cc2c[nH]c3ccccc23)C(=O)N[C@@H](CCN)C(=O)N[C@@H](Cc2cn(CC(=O)O)c3ccccc23)C(=O)N1C [Example 1058] ({CH2CO}-Y[NMeA]NP[Dap](X94)L[Hyp]W[Dab][Trp(1-CH2COOH)][NMeNle][NMeNle]LCG-NH2; thioether N-14)	–
–	CCCC[C@H]1C(=O)N(C)[C@@H](CCCC)C(=O)N[C@@H](CC(C)C)C(=O)N[C@H](C(=O)NCC(N)=O)CSCC(=O)N[C@@H](Cc2ccc(O)cc2)C(=O)N(C)[C@@H](C)C(=O)N[C@@H](CC(N)=O)C(=O)N2CCC[C@H]2C(=O)N[C@@H](CNC(=S)Nc2ccc([N+](=O)[O-])cc2OC)C(=O)N[C@@H](CC(C)C)C(=O)N2C[C@H](O)C[C@H]2C(=O)N[C@@H](Cc2c[nH]c3ccccc23)C(=O)N[C@@H](CCNC(=S)Nc2ccc([N+](=O)[O-])cc2OC)C(=O)N[C@@H](Cc2cn(CC(=O)O)c3ccccc23)C(=O)N1C [Example 1104] ({CH2CO}-Y[NMeA]NP[Dap](X63)L[Hyp]W[Dab](X63)[Trp(1-CH2COOH)][NMeNle][NMeNle]LCG-NH2; thioether N-14)	12
–	CCCC[C@H]1C(=O)N(C)[C@@H](CCCC)C(=O)N[C@@H](CC(C)C)C(=O)N[C@H](C(=O)NCC(N)=O)CSCC(=O)N[C@@H](Cc2ccc(O)cc2)C(=O)N(C)[C@@H](C)C(=O)N[C@@H](CC(N)=O)C(=O)N2CCC[C@H]2C(=O)N[C@@H](CNC(=O)Oc2ccc3ccccc3c2)C(=O)N[C@@H](CC(C)C)C(=O)N2C[C@H](O)C[C@H]2C(=O)N[C@@H](Cc2c[nH]c3ccccc23)C(=O)N[C@@H](CCN)C(=O)N[C@@H](Cc2cn(CC(=O)O)c3ccccc23)C(=O)N1C [Example 3045] ({CH2CO}-Y[NMeA]NP[Dap](X20)L[Hyp]W[Dab][Trp(1-CH2COOH)][NMeNle][NMeNle]LCG-NH2; thioether N-14)	1.3
0.9	CCCC[C@H]1C(=O)N(C)[C@@H](CCCC)C(=O)N[C@@H](CC(C)C)C(=O)N[C@H](C(=O)NCC(N)=O)CSCC(=O)N[C@@H](Cc2ccc(O)cc2)C(=O)N(C)[C@@H](C)C(=O)N[C@@H](CC(N)=O)C(=O)N2CCC[C@H]2C(=O)N[C@@H](CNC(=S)Nc2ccc(N3CCOCC3)cc2)C(=O)N[C@@H](CC(C)C)C(=O)N2C[C@H](O)C[C@H]2C(=O)N[C@@H](Cc2c[nH]c3ccccc23)C(=O)N[C@@H](CCN)C(=O)N[C@@H](Cc2cn(CC(=O)O)c3ccccc23)C(=O)N1C [Example 1055] ({CH2CO}-Y[NMeA]NP[Dap](X10)L[Hyp]W[Dab][Trp(1-CH2COOH)][NMeNle][NMeNle]LCG-NH2; thioether N-14)	–
3.8	CCCC[C@H]1C(=O)N(C)[C@@H](CCCC)C(=O)N[C@@H](CC(C)C)C(=O)N[C@H](C(=O)NCC(N)=O)CSCC(=O)N[C@@H](Cc2ccc(O)cc2)C(=O)N(C)[C@@H](C)C(=O)N[C@@H](CC(N)=O)C(=O)N2CCC[C@H]2C(=O)N[C@@H](CNC(=S)Nc2ccccc2-c2ccccc2)C(=O)N[C@@H](CC(C)C)C(=O)N2C[C@H](O)C[C@H]2C(=O)N[C@@H](Cc2c[nH]c3ccccc23)C(=O)N[C@@H](CCN)C(=O)N[C@@H](Cc2cn(CC(=O)O)c3ccccc23)C(=O)N1C [Example 1085] ({CH2CO}-Y[NMeA]NP[Dap](X11)L[Hyp]W[Dab][Trp(1-CH2COOH)][NMeNle][NMeNle]LCG-NH2; thioether N-14)	–
24	CCCC[C@H]1C(=O)N(C)[C@@H](CCCC)C(=O)N[C@@H](CC(C)C)C(=O)N[C@H](C(=O)NCC(N)=O)CSCC(=O)N[C@@H](Cc2ccc(O)cc2)C(=O)N(C)[C@@H](C)C(=O)N[C@@H](CC(N)=O)C(=O)N2CCC[C@H]2C(=O)N[C@@H](CNC(=O)Nc2cccc(Oc3ccccc3)c2)C(=O)N[C@@H](CC(C)C)C(=O)N2C[C@H](O)C[C@H]2C(=O)N[C@@H](Cc2c[nH]c3ccccc23)C(=O)N[C@@H](CCNC(=O)Nc2cccc(Oc3ccccc3)c2)C(=O)N[C@@H](Cc2cn(CC(=O)O)c3ccccc23)C(=O)N1C [Example 1020] ({CH2CO}-Y[NMeA]NP[Dap]([CO-X36])L[Hyp]W[Dab]([CO-X36])[Trp(1-CH2COOH)][NMeNle][NMeNle]LCG-NH2; thioether N-14)	–
